Test results: patent US10815230B2, “Casein kinase 1 delta inhibitor” (ELECTROPHORETICS LIMITED, priority 2015, dated 2020)

Legend:
Assay in all cases: KINOMEscan binding assay
Details in all cases: read-out: % Ctrl @ 10000 nM
AAK1 = AAK1 (Homo sapiens, UniProt Q2M2I8)
ACVR2B = ACVR2B (Homo sapiens, UniProt Q13705)
ACVRL1 = ACVRL1 (Homo sapiens, UniProt P37023)
CAMK1 = CAMK1 (Homo sapiens, UniProt Q14012)
CAMK2B = CAMK2B (Homo sapiens, UniProt Q13554)
CAMKK1 = CAMKK1 (Homo sapiens, UniProt Q8N5S9)
CSF1R = CSF1R (Homo sapiens, UniProt P07333)
DDR2 = DDR2 (Homo sapiens, UniProt Q16832)
DYRK1A = DYRK1A (Homo sapiens, UniProt Q13627)
EGFR (L861Q) = EGFR (L861Q) (Homo sapiens, UniProt P00533, L861Q)
ERK2 = ERK2 (Homo sapiens, UniProt P28482)
FGFR1 = FGFR1 (Homo sapiens, UniProt P11362)
Chain of FGFR1 (P11362 22-822): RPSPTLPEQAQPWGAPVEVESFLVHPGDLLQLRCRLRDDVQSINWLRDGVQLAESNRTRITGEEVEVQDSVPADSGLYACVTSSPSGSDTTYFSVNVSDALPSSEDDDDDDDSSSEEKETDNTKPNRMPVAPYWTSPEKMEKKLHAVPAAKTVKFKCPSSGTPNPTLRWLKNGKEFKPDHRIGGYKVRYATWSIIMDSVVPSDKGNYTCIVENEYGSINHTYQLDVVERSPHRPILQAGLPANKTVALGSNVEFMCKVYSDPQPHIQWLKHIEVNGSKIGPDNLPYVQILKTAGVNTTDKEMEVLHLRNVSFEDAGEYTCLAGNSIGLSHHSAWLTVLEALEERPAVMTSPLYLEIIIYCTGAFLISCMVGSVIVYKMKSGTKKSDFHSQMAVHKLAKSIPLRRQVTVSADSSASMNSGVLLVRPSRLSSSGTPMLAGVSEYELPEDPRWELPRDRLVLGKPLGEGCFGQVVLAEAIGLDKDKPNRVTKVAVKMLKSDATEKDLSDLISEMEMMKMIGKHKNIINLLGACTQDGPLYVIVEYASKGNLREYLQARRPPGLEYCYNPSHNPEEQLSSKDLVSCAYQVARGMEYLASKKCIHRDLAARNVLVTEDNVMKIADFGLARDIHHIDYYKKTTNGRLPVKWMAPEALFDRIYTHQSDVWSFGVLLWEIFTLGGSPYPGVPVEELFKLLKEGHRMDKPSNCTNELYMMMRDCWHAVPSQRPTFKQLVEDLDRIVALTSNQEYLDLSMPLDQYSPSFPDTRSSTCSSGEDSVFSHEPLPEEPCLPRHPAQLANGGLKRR

FGFR2 = FGFR2 (Homo sapiens, UniProt P21802)
FGR = FGR (Homo sapiens, UniProt P09769)
Chain of FGR (P09769 whole entry): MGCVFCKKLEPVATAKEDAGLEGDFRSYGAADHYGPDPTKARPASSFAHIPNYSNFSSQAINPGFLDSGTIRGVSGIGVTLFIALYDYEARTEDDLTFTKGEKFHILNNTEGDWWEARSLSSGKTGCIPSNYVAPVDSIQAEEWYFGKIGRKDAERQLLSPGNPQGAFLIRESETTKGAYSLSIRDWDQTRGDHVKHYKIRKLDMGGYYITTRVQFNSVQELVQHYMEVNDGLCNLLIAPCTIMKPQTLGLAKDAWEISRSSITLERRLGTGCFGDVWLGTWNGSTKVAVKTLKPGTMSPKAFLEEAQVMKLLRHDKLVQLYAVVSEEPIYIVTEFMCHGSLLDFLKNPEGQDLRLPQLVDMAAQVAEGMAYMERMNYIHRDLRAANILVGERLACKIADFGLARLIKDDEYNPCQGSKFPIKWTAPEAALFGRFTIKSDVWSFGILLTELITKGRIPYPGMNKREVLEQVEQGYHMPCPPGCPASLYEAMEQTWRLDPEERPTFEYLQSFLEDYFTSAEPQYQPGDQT

HASPIN = HASPIN (Homo sapiens, UniProt Q8TF76)
HIPK2 = HIPK2 (Homo sapiens, UniProt Q9H2X6)
[1] = target: JAK1 (JH2domain-pseudokinase) (Homo sapiens, UniProt P23458)
KIT = KIT (Homo sapiens, UniProt P10721)
KIT (A829P) = KIT (A829P) (Homo sapiens, UniProt P10721, A829P)
KIT (L576P) = KIT (L576P) (Homo sapiens, UniProt P10721, L576P)
LIMK1 = LIMK1 (Homo sapiens, UniProt P53667)
MAP4K2 = target: T1, MAP4K2 (Homo sapiens, UniProt Q12851)
T1 construct: T7 phage fusion (most assays) or DNA label after HEK293 expression; purchased DiscoveRx (KINOMEscan, LeadHunter Discovery services); host or cells: T7 phage in E. coli (BL21-derived) or HEK293

MAPKAPK2 = target: T2, MAPKAPK2 (Homo sapiens, UniProt P49137)
T2 construct: T7 phage fusion (most assays) or DNA label after HEK293 expression; purchased DiscoveRx (KINOMEscan, LeadHunter Discovery services); host or cells: T7 phage in E. coli (BL21-derived) or HEK293

MELK = MELK (Homo sapiens, UniProt Q14680)
MET = MET (Homo sapiens, UniProt P08581)
MLK1 = MLK1 (Homo sapiens, UniProt P80192)
MYLK4 = MYLK4 (Homo sapiens, UniProt Q86YV6)
Chain of MYLK4 (Q86YV6 whole entry): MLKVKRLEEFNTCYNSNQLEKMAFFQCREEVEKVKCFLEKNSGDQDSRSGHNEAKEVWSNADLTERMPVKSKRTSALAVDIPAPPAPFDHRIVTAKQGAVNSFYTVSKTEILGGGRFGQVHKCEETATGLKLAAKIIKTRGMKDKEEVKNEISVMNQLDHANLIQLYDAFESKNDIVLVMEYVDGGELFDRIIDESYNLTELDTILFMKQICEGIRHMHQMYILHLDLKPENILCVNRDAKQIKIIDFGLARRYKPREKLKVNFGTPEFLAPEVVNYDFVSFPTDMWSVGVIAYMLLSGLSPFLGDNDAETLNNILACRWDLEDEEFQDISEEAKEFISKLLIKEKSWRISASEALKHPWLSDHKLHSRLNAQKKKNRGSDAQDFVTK

OSR1 = OSR1 (Homo sapiens, UniProt O95747)
PAK4 = PAK4 (Homo sapiens, UniProt O96013)
Chain of PAK4 (O96013 whole entry): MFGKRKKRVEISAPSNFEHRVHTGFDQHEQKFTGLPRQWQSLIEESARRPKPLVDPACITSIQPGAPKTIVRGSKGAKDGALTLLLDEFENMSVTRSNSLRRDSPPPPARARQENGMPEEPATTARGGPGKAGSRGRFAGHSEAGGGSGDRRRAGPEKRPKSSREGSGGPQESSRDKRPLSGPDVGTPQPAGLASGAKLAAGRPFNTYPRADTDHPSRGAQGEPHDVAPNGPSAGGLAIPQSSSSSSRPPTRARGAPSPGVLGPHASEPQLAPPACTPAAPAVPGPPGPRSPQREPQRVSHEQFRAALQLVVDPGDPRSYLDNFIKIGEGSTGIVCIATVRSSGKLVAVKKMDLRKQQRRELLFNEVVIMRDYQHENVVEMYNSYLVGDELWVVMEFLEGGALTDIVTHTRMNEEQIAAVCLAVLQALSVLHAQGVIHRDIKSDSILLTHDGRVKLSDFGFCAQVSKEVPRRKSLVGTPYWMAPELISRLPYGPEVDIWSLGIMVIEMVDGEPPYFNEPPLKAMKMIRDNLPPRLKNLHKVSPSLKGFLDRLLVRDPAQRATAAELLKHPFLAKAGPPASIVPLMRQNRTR

PDGFRA = PDGFRA (Homo sapiens, UniProt P16234)
Chain of PDGFRA (P16234 24-1089): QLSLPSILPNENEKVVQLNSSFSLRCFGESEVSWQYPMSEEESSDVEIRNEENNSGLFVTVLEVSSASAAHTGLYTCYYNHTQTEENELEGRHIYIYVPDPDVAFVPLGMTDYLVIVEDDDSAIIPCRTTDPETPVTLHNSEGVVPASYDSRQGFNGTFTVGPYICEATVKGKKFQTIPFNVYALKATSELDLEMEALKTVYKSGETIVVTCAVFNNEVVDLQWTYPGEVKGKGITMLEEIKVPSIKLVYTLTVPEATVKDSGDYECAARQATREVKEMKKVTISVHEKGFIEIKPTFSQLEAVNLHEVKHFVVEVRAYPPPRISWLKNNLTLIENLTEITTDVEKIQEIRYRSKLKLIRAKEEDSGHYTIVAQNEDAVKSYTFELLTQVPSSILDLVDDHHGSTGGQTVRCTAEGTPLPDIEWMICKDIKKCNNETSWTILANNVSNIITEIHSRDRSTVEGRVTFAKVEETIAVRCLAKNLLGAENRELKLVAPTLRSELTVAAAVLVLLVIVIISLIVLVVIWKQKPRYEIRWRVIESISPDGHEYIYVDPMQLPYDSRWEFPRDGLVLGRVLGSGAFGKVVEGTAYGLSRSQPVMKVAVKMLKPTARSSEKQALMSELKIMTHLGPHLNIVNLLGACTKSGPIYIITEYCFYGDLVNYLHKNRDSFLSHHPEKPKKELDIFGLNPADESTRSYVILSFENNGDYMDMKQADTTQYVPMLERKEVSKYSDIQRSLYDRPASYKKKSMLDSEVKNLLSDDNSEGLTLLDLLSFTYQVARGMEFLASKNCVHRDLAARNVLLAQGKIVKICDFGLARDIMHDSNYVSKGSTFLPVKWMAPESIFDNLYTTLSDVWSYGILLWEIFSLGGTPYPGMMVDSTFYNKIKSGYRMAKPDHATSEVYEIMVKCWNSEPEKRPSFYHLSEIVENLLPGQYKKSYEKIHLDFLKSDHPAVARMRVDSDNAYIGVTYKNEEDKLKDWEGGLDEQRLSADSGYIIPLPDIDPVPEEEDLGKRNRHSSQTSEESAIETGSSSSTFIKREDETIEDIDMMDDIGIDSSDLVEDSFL

PHKG2 = PHKG2 (Homo sapiens, UniProt P15735)
PIK3CA (E545K) = PIK3CA (E545K) (Homo sapiens, UniProt P42336, E545K)
PRKD2 = PRKD2 (Homo sapiens, UniProt Q9BZL6)
PRP4 = PRP4 (Homo sapiens, UniProt Q13523)
RET (V804L) = RET (V804L) (Homo sapiens, UniProt P07949, V804L)
SYK = SYK (Homo sapiens, UniProt P43405)
TESK1 = TESK1 (Homo sapiens, UniProt Q15569)
TRKA = TRKA (Homo sapiens, UniProt P04629)
VRK2 = target: T3, VRK2 (Homo sapiens, UniProt Q86Y07)
T3 construct: purchased DiscoveRx (KINOMEscan, LeadHunter Discovery services)

YES = YES (Homo sapiens, UniProt P07947)
Chain of YES (P07947 whole entry): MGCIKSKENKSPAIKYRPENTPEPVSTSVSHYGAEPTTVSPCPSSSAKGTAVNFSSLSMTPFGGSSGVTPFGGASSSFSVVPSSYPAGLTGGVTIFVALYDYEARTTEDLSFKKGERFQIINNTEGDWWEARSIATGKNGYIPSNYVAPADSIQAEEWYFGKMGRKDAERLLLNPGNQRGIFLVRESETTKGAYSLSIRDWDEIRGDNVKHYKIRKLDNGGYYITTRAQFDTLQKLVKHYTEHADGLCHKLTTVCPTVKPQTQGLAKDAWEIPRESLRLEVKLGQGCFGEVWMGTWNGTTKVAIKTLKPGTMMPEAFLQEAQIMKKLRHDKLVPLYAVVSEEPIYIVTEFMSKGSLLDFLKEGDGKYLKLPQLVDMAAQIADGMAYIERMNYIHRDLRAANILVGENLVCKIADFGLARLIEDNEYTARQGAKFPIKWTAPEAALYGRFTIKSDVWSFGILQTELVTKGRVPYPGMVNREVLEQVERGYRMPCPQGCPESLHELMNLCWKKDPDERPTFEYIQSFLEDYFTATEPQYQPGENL

YSK4 = target: T4, YSK4 (Homo sapiens, UniProt Q56UN5)
T4 construct: purchased DiscoveRx (KINOMEscan, LeadHunter Discovery services)

Chain of CAMK2B (Q13554 whole entry): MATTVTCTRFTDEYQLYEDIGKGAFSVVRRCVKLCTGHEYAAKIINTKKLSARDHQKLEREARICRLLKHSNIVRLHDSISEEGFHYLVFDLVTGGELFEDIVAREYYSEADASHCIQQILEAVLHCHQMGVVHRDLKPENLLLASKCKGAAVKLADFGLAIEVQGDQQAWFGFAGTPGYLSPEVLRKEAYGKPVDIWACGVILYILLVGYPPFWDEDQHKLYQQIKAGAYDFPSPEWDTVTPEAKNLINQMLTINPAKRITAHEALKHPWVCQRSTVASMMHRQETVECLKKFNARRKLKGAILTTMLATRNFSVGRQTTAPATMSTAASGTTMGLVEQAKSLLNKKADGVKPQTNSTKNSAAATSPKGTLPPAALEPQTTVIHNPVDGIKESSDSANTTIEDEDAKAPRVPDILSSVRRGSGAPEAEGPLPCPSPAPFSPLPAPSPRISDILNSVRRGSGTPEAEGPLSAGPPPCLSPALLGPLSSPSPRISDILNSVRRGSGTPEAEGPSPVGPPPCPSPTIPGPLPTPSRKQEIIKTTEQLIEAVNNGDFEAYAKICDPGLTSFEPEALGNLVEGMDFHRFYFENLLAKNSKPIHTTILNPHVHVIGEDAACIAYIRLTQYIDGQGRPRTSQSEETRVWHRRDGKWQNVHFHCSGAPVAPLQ
Chain of CAMK1 (Q14012 whole entry): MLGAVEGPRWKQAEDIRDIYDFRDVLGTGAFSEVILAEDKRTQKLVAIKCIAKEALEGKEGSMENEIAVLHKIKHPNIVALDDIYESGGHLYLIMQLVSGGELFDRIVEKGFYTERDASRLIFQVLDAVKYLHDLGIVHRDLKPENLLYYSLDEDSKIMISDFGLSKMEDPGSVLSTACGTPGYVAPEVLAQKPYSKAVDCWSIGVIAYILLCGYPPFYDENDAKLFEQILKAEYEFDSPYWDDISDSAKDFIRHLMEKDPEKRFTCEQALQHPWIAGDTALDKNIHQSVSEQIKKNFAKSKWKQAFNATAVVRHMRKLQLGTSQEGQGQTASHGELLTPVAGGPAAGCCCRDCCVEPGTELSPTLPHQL

For `Nc1ncc(-c2nc3ccccc3o2)c(-c2ccncc2)n1` [Comparative Compound 324, 5-(1,3-benzoxazol-2-yl)-4-(pyridine-4-yl)pyrimidin-2-amine], the remaining binding at 10 µM (AAK1) was 83%, the remaining binding at 10 µM (ACVR2B) was 100% and the remaining binding at 10 µM (ACVRL1) was 100%. It also gave a remaining binding at 10 µM (CAMK1) of 100%, a remaining binding at 10 µM (CAMK2B) of 100% and a remaining binding at 10 µM (CAMKK1) of 100%. It also gave a remaining binding at 10 µM (CSF1R) of 74%, a remaining binding at 10 µM (DDR2) of 100% and a remaining binding at 10 µM (DYRK1A) of 87%. It also gave a remaining binding at 10 µM (EGFR (L861Q)) of 64%, a remaining binding at 10 µM (ERK2) of 99% and a remaining binding at 10 µM (FGFR1) of 98%. For the same compound, the remaining binding at 10 µM (FGFR2) was 63%, the remaining binding at 10 µM (FGR) was 94% and the remaining binding at 10 µM (HASPIN) was 70%. It also gave a remaining binding at 10 µM (HIPK2) of 67%, a remaining binding at 10 µM [1] of 17% and a remaining binding at 10 µM (KIT) of 91%. The remaining binding at 10 µM (KIT (A829P)) was 79%, the remaining binding at 10 µM (KIT (L576P)) was 57% and the remaining binding at 10 µM (LIMK1) was 100%. For the same compound, the remaining binding at 10 µM (MAP4K2) was 100%, the remaining binding at 10 µM (MAPKAPK2) was 100% and the remaining binding at 10 µM (MELK) was 80%. For the same compound, the remaining binding at 10 µM (MET) was 91%, the remaining binding at 10 µM (MLK1) was 100% and the remaining binding at 10 µM (MYLK4) was 98%. For the same compound, the remaining binding at 10 µM (OSR1) was 100%, the remaining binding at 10 µM (PAK4) was 98% and the remaining binding at 10 µM (PDGFRA) was 86%. The remaining binding at 10 µM (PHKG2) was 100%, the remaining binding at 10 µM (PIK3CA (E545K)) was 82% and the remaining binding at 10 µM (PRKD2) was 90%. For the same compound, the remaining binding at 10 µM (PRP4) was 70%, the remaining binding at 10 µM (RET (V804L)) was 86% and the remaining binding at 10 µM (SYK) was 100%. For the same compound, the remaining binding at 10 µM (TESK1) was 88%, the remaining binding at 10 µM (TRKA) was 77% and the remaining binding at 10 µM (VRK2) was 86%. It also gave a remaining binding at 10 µM (YES) of 100% and a remaining binding at 10 µM (YSK4) of 88%.
With `CNc1c(C(N)=O)c2ccccn2c1C(=O)c1ccc(F)cc1` [Compound A, 2-methyl-amino-3-[(4-fluorophenyl)carbonyl]indolizine-1-carboxamide] the remaining binding at 10 µM (AAK1) was 62%, the remaining binding at 10 µM (ACVR2B) was 100% and the remaining binding at 10 µM (ACVRL1) was 100%. The remaining binding at 10 µM (CAMK1) was 100%, the remaining binding at 10 µM (CAMK2B) was 62% and the remaining binding at 10 µM (CAMKK1) was 89%. It also gave a remaining binding at 10 µM (CSF1R) of 87%, a remaining binding at 10 µM (DDR2) of 65% and a remaining binding at 10 µM (DYRK1A) of 74%. For the same compound, the remaining binding at 10 µM (EGFR (L861Q)) was 29%, the remaining binding at 10 µM (ERK2) was 78% and the remaining binding at 10 µM (FGFR1) was 72%. For the same compound, the remaining binding at 10 µM (FGFR2) was 53%, the remaining binding at 10 µM (FGR) was 66% and the remaining binding at 10 µM (HASPIN) was 45%. The remaining binding at 10 µM (HIPK2) was 74%, the remaining binding at 10 µM [1] was 71% and the remaining binding at 10 µM (KIT) was 32%. It also gave a remaining binding at 10 µM (KIT (A829P)) of 86%, a remaining binding at 10 µM (KIT (L576P)) of 29% and a remaining binding at 10 µM (LIMK1) of 100%. For the same compound, the remaining binding at 10 µM (MAP4K2) was 100%, the remaining binding at 10 µM (MAPKAPK2) was 100% and the remaining binding at 10 µM (MELK) was 71%. For the same compound, the remaining binding at 10 µM (MET) was 100%, the remaining binding at 10 µM (MLK1) was 95% and the remaining binding at 10 µM (MYLK4) was 43%. It also gave a remaining binding at 10 µM (OSR1) of 99%, a remaining binding at 10 µM (PAK4) of 89% and a remaining binding at 10 µM (PDGFRA) of 89%. For the same compound, the remaining binding at 10 µM (PHKG2) was 91%, the remaining binding at 10 µM (PIK3CA (E545K)) was 77% and the remaining binding at 10 µM (PRKD2) was 68%. For the same compound, the remaining binding at 10 µM (PRP4) was 90%, the remaining binding at 10 µM (RET (V804L)) was 67% and the remaining binding at 10 µM (SYK) was 86%. The remaining binding at 10 µM (TESK1) was 90%, the remaining binding at 10 µM (TRKA) was 86% and the remaining binding at 10 µM (VRK2) was 35%. For the same compound, the remaining binding at 10 µM (YES) was 78% and the remaining binding at 10 µM (YSK4) was 73%.
